What all share (format): functional, cell-based
The test system of one test is A549. Kind of test: Antiproliferative activity against human A549 cells assessed as inhibition of cell growth incubated for 24 to 72 hrs by CCK8 assay. In general terms: Formazan colour is commonly taken as a measure of viable cells.
For a further test, the system named is NCI-H460. Put plainly: Antiproliferative activity against human NCI-H460 cells assessed as inhibition of cell growth incubated for 24 to 72 hrs by CCK8 assay.
In another test the test system is HepG2. Put plainly: Antiproliferative activity against human HepG2 cells assessed as inhibition of cell growth incubated for 24 to 72 hrs by CCK8 assay.

The source of these data is ChEMBL document CHEMBL5576041, “13-oxyingenol dodecanoate derivatives induce mitophagy and ferroptosis through targeting TMBIM6 as potential anti-NSCLC agents” (Eur J Med Chem, 2024).

A value given as a limit tells only on which side of the number the result lay.

By IC50 is commonly meant the point on the concentration scale where inhibition reaches its midpoint. For the compound `CCCCCCCCCCCC(=O)O[C@@]12C[C@@H](C)[C@]34C=C(C)[C@H](OC(=O)NC5CCCC5)[C@@]3(O)[C@H](O)C(CO)=C[C@H](C4=O)[C@@H]1C2(C)C`, the IC50 in the test with A549 was 11.9 µM; in the test on NCI-H460, 17.9 µM; in the test with HepG2, 8.7 µM.

In the case of `CCCCCCCCCCCC(=O)O[C@@]12C[C@@H](C)[C@]34C=C(C)[C@H](OC(=O)c5ccc6ccccc6c5)[C@@]3(O)[C@H](O)C(CO)=C[C@H](C4=O)[C@@H]1C2(C)C`, the half-maximal inhibitory concentration (IC50) in the test with A549 and with HepG2 was over 50 µM in each case.

For `CCCCCCCCCCCC(=O)O[C@@]12C[C@@H](C)[C@]34C=C(C)[C@H](OC(=O)C5CCCCC5)[C@@]3(O)[C@H](O)C(CO)=C[C@H](C4=O)[C@@H]1C2(C)C`, the IC50 is 17.1 µM in the test with A549 and 13.4 µM in the test on HepG2.

Consider `CCCCCCCCCCCC(=O)O[C@@]12C[C@@H](C)[C@]34C=C(C)[C@H](OC(=O)NCCCC)[C@@]3(O)[C@H](O)C(CO)=C[C@H](C4=O)[C@@H]1C2(C)C`, for which the IC50 was determined as 25.6 µM with A549, 9.7 µM in the test on NCI-H460 and 10.3 µM with HepG2.

Consider `CCCCCCCCCCCC(=O)O[C@@]12C[C@@H](C)[C@]34C=C(C)[C@H](OC(=O)NCCCCC)[C@@]3(O)[C@H](O)C(CO)=C[C@H](C4=O)[C@@H]1C2(C)C`, for which the IC50 in the test on A549 stood at 32.8 µM; in the test on NCI-H460, 5.4 µM; in the test on HepG2, 1.7 µM.

Turning to `CCCCCCCCCCCC(=O)O[C@@]12C[C@@H](C)[C@]34C=C(C)[C@H](OC(=O)c5ccc(Br)cc5)[C@@]3(O)[C@H](O)C(COC(=O)c3ccc(Br)cc3)=C[C@H](C4=O)[C@@H]1C2(C)C`, the IC50 in the test with A549 and in the test on NCI-H460 was over 50 µM in each case.

On to `CCCCCCCCCCCC(=O)O[C@@]12C[C@@H](C)[C@]34C=C(C)[C@H](OC(=O)NC(C)C)[C@@]3(O)[C@H](O)C(CO)=C[C@H](C4=O)[C@@H]1C2(C)C`, for which the IC50 with A549 stood at 18.1 µM; in the test with HepG2 it was 13.5 µM.

For the compound `CCCCCCCCCCCC(=O)O[C@@]12C[C@@H](C)[C@]34C=C(C)[C@H](OC(=O)NCc5ccc(F)cc5)[C@@]3(O)[C@H](O)C(CO)=C[C@H](C4=O)[C@@H]1C2(C)C`, the values for the IC50 in the test on A549, with NCI-H460 and with HepG2 were 9.4 µM, 11.8 µM and 10.9 µM, respectively.

Regarding `CCCCCCCCCCCC(=O)O[C@@]12C[C@@H](C)[C@]34C=C(C)[C@H](OC(=O)NCCCCCC)[C@@]3(O)[C@H](O)C(CO)=C[C@H](C4=O)[C@@H]1C2(C)C`, the IC50 in the test with A549 stood at 31 µM; in the test on NCI-H460, 29 µM.

For `CCCCCCCCCCCC(=O)O[C@@]12C[C@@H](C)[C@]34C=C(C)[C@H](OCCC)[C@@]3(O)[C@H](O)C(CO)=C[C@H](C4=O)[C@@H]1C2(C)C`, the IC50 with A549 was determined as 30 µM; in the test with HepG2, 12.7 µM.

Consider `CCCCCCCCCCCC(=O)O[C@@]12C[C@@H](C)[C@]34C=C(C)[C@H](OC(=O)c5ccc([N+](=O)[O-])cc5)[C@@]3(O)[C@H](O)C(CO)=C[C@H](C4=O)[C@@H]1C2(C)C`, for which the results for the IC50 in the test on A549 and in the test with HepG2 were 14.2 µM and 12 µM, respectively.

Consider `CCCCCCCCCCCC(=O)O[C@@]12C[C@@H](C)[C@]34C=C(C)[C@H](OCC)[C@@]3(O)[C@H](O)C(CO)=C[C@H](C4=O)[C@@H]1C2(C)C`, for which the IC50 with A549 was found to be 27.2 µM; with NCI-H460 it was 45.8 µM; in the test on HepG2, 13.6 µM.

`CCCCCCCCCCCC(=O)O[C@@]12C[C@@H](C)[C@]34C=C(C)[C@H](OC(=O)NCCCCCCCC)[C@@]3(O)[C@H](O)C(CO)=C[C@H](C4=O)[C@@H]1C2(C)C`: the IC50 in the test on A549 came out at 19.1 µM; with NCI-H460, 14.3 µM.

As for `CCCCCCCCCCCC(=O)O[C@@]12C[C@@H](C)[C@]34C=C(C)[C@H](OC(=O)c5ccccc5)[C@@]3(O)[C@H](O)C(CO)=C[C@H](C4=O)[C@@H]1C2(C)C`, the 50% inhibitory concentration (IC50) with A549 is 23.8 µM; with HepG2, 14.5 µM.

Take `CCCCCCCCCCCC(=O)O[C@@]12C[C@@H](C)[C@]34C=C(C)[C@H](OC(=O)c5ccc(Br)cc5)[C@@]3(O)[C@H](O)C(CO)=C[C@H](C4=O)[C@@H]1C2(C)C`: the IC50 in the test with A549 was 10 µM; in the test on NCI-H460, 7.9 µM; with HepG2, over 50 µM.

As for `CCCCCCCCCCCC(=O)O[C@@]12C[C@@H](C)[C@]34C=C(C)[C@H](OCc5ccccc5)[C@@]3(O)[C@H](O)C(CO)=C[C@H](C4=O)[C@@H]1C2(C)C`, the figures for the IC50 in the test on A549, with NCI-H460 and with HepG2 were 16.2 µM, 23.5 µM and 8.8 µM, respectively.

With `CCCCCCCCCCCC(=O)O[C@@]12C[C@@H](C)[C@]34C=C(C)[C@H](O)[C@@]3(O)[C@H](O)C(COC(=O)c3ccc([N+](=O)[O-])cc3)=C[C@H](C4=O)[C@@H]1C2(C)C`, the IC50 worked out at 12.8 µM with A549, 2.6 µM with NCI-H460 and 15.5 µM in the test on HepG2.

Consider `CCCCCCCCCCCC(=O)O[C@@]12C[C@@H](C)[C@]34C=C(C)[C@H](OC)[C@@]3(O)[C@H](O)C(CO)=C[C@H](C4=O)[C@@H]1C2(C)C`, for which the IC50 in the test with A549 came to 16.6 µM; in the test with HepG2 it was 13.6 µM.

For `C/C=C(/C)C(=O)O[C@H]1C(C)=C[C@]23C(=O)[C@@H](C=C(CO)[C@@H](O)[C@]12O)[C@H]1[C@@H](C[C@H]3C)C1(C)C` [INGENOL MEBUTATE], the IC50 with A549, in the test on NCI-H460 and with HepG2 was over 50 µM each time.

For `CCCCCCCCCCCC(=O)O[C@@]12C[C@@H](C)[C@]34C=C(C)[C@H](O)[C@@]3(O)[C@H](O)C(COC(=O)c3ccc(Br)cc3)=C[C@H](C4=O)[C@@H]1C2(C)C`, the half-inhibitory concentration (IC50) in the test on A549 and with NCI-H460 was over 50 µM throughout.

For `CCCCCCCCCCCC(=O)O[C@@]12C[C@@H](C)[C@]34C=C(C)[C@H](OC(=O)c5ccc(F)cc5)[C@@]3(O)[C@H](O)C(COC(=O)c3ccc(F)cc3)=C[C@H](C4=O)[C@@H]1C2(C)C`, the IC50 in the test on A549 was 12.5 µM; in the test with NCI-H460, 5.4 µM; in the test on HepG2, over 50 µM.

In the case of `CCCCCCCCCCCC(=O)O[C@@]12C[C@@H](C)[C@]34C=C(C)[C@H](OC(=O)NCc5ccc(C)cc5)[C@@]3(O)[C@H](O)C(CO)=C[C@H](C4=O)[C@@H]1C2(C)C`, the IC50 is over 50 µM in the test on A549 and 27 µM in the test on HepG2.

Take `CCCCCCCCCCCC(=O)O[C@@]12C[C@@H](C)[C@]34C=C(C)[C@H](OC(=O)c5ccc(-c6ccccc6)cc5)[C@@]3(O)[C@H](O)C(CO)=C[C@H](C4=O)[C@@H]1C2(C)C`: the IC50 in the test with A549 and in the test on HepG2 was over 50 µM in each case.

In the case of `CCCCCCCCCCCC(=O)O[C@@]12C[C@@H](C)[C@]34C=C(C)[C@H](OC(=O)NC5CC5)[C@@]3(O)[C@H](O)C(CO)=C[C@H](C4=O)[C@@H]1C2(C)C`, the figures for the IC50 in the test with A549 and in the test with HepG2 were 13.7 µM and 12.7 µM, respectively.

For `CCCCCCCCCCCC(=O)O[C@@]12C[C@@H](C)[C@]34C=C(C)[C@H](O)[C@@]3(O)[C@H](O)C(COC(=O)c3ccc(F)cc3)=C[C@H](C4=O)[C@@H]1C2(C)C`, the values for the IC50 in the test with A549, with NCI-H460 and in the test with HepG2 were 21.2 µM, 4.5 µM and 7.6 µM, respectively.

For `CCCCCCCCCCCC(=O)O[C@@]12C[C@@H](C)[C@]34C=C(C)[C@H](OC(=O)c5ccc(OC)cc5)[C@@]3(O)[C@H](O)C(CO)=C[C@H](C4=O)[C@@H]1C2(C)C`, the IC50 in the test with A549 came to 23.6 µM; in the test with HepG2, 14.3 µM.

In the case of `CCCCCCCCCCCC(=O)O[C@@]12C[C@@H](C)[C@]34C=C(C)[C@H](OC(=O)N5CCCC5)[C@@]3(O)[C@H](O)C(CO)=C[C@H](C4=O)[C@@H]1C2(C)C`, the figures for the IC50 with A549 and with HepG2 were 27.9 µM and 21.1 µM, respectively.
